Test results: article PMC12156033, “N-Alkylamino Stilbene Compounds as Amyloid β Inhibitors for Alzheimer’s Disease Research” (Molecules, 2025)
Entries after “also recorded” stand apart in the source; their conditions may differ.

Assays:
[1] = Log D measurement octanol/PBS; format: physicochemical; details: octanol / PBS pH 7.4, 10 μM, triplicate, ± SD
Method: The determination of log D values for N-alkylamino multifunctional compounds was performed using a slightly modified reported procedure. The compounds (final concentration 10 μM) were added to the premix suspension containing 0.5 mL octanol and 0.5 mL octanol-saturated PBS buffer (pH = 7.4). The resulting mixture was stirred vigorously for 5 min and centrifuged at 2000 rpm for 5 min. The octanol layer was separated from the PBS layer, and the fluorescence spectrum was recorded. The remaining 0.5 mL PBS layer was partitioned with 0.5 mL PBS-saturated octanol, and the octanol layer was separated after 5 min of vigorous shaking and centrifuging. The fluorescence spectrum of the octanol layer was recorded. The log D value was calculated based on the fluorescence intensity ratio for the two octanol layers. Each experiment was completed in triplicate, and the error represents the standard deviation for the average log D values.

[2] = molecular target: T1, soluble Aβ42 aggregates (sAβ) (Homo sapiens, UniProt P05067); assay: Fluorescence spectra of compounds with soluble Aβ42 aggregates; format: binding; details: excitation 380 nm; compound 5.0 µM in PBS with soluble Aβ aggregates
T1 construct: commercial Aβ42 peptide (AnaSpec or GL Biochem); purchased AnaSpec or GL Biochem
T1 sequence (P05067 672-713 limits assumed): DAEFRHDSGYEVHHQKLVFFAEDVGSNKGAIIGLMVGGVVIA
Method: (§1) All fluorescence measurements were performed using a SpectraMax M2e plate reader (Molecular Devices, San Jose, CA, USA). The fluorescence spectra of the compounds’ solution (100 μL PBS, 5.0 µM) were recorded with excitation at 380 nm and an emission wavelength from 400 to 680 nm. To PBS solutions (100 μL) of the compounds (5.0 µM), various Aβ42 species were added, with final concentrations of 5.0 µM and 25.0 µM, and their fluorescence spectra (λmax of emission) were determined as described above.
(§2) Aβ42 powder was prepared by dissolving commercial Aβ42 peptide (AnaSpec or GL Biochem) in ammonium hydroxide solution (1%, v/v). The solution was then aliquoted out and lyophilized overnight. The resulting aliquoted powder was stored at −80 °C. Aβ42 monomers were generated by dissolving Aβ42 powder in 1,1,1,3,3,3-hexafluoro-2-propanol (HFIP, 1 mM) and incubating for 1 h at room temperature. The solution was then evaporated overnight and dried by vacuum centrifuge to result in monomeric films. Aβ42 fibrils were generated by dissolving the monomeric Aβ42 films in DMSO, diluting into the appropriate buffer, and incubating for 24 h at 37 °C with continuous agitation (final DMSO concentration was <2%). For the preparation of Aβ42 oligomers, the peptides were suspended in PBS buffer and incubated overnight at 4 °C.

[3] = molecular target: T2, amyloid plaques in 5xFAD mice brain sections (Homo sapiens, UniProt P05067); assay: Histological staining of 5xFAD mice brain sections, colocalization with HJ3.4 antibody; format: binding, mouse; details: 11-month-old 5xFAD mice brain sections, compound 25 μM, HJ3.4 1 μg/mL
T2 construct: the amyloid beta (Aβ) peptide that makes up amyloid plaques; tissue Jackson Laboratories; host or cells: brain sections from 11-month-old 5xFAD transgenic mice (Tg6799 line)
T2 sequence (P05067 672-713 limits assumed): as above
Source text: To further investigate the affinity of the developed compounds toward various Aβ aggregates in situ, the intrinsic fluorescence properties of the compounds were employed for their ability to stain insoluble amyloid plaques. For these studies, brain sections from 11-month-old 5xFAD transgenic mice, which rapidly develop severe amyloid pathology, were co-stained with stilbenes and HJ3.4 antibody. HJ3.4 is an anti-amyloid antibody that binds to the N-terminal region of the Aβ peptide, thereby targeting both soluble and insoluble amyloid species. To evaluate the Aβ binding specificity of the compounds in vitro, brain sections from 11-month-old 5xFAD mice were washed with PBS (3 × 5 min) and blocked with bovine serum albumin (2% w/v BSA in PBS, pH 7.4, 10 min). Then, the sections were incubated with 25 μM of multifunctional compounds and sequentially stained with HJ3.4 antibody (Professor David Holtzman, 1 μg/mL) for 30 min. The brain sections were treated with 2% w/v BSA-PBS again for 4 min to remove any compounds or antibodies that were non-specifically binding to the tissue. Finally, the sections were washed with PBS (3 × 2 min) and DI water (2 min) and mounted with non-fluorescent mounting media (Vectashield). Colocalization analysis and determination of Pearson’s correlation coefficient were performed with the imaging software Fiji (ImageJ 1.52p). Mouse brains were harvested in compliance with the Institutional Animal Care and Use Committee of the University of Illinois at Urbana-Champaign (IACUC protocol #22094).

Aβ42 fibrils = molecular target: T3, Aβ42 fibrils (Homo sapiens, UniProt P05067); assay: Fluorescence spectra of compounds with Aβ42 fibrils; format: binding; details: excitation 380 nm; compound 5.0 µM in PBS with Aβ fibrils
T3 construct: commercial Aβ42 peptide (AnaSpec or GL Biochem); purchased AnaSpec or GL Biochem
T3 sequence (P05067 672-713 limits assumed): as above
Method: as §1, §2

[4] = Fluorescence spectra of the compounds alone in PBS; format: physicochemical; details: excitation 380 nm; compound 5.0 µM in PBS
Method: as §1

[5] = Alamar blue cytotoxicity assay; format: cell-based, mouse; details: mouse, Neuro2A (N2A) neuroblastoma cells, highest tested concentration (20 μM), 40 h, normalized to DMSO-only control, read-out: cell viability
Method: (§3) Mouse neuroblastoma Neuro2A (N2A) cell lines were purchased from the American Type Culture Collection (ATCC), Manassas, VA, USA. Cells were grown in DMEM/10% FBS, which is the regular growth media for N2A cells, in a humidified atmosphere with 5% CO2 at 37 °C. N2A cells were seeded in a clear 96-well plate (2.5 × 10^4/well) with DMEM/10% FBS. The media was changed to DMEM/N-2 media 24 h later. After 1 h, the treatment reagents were added. Owing to the poor solubility of compounds in the media, the final amount of DMSO used was 1% (v/v). After an additional incubation of 40 h, Alamar Blue solution was added to each well, and the cells were incubated for 90 min at 37 °C. Fluorescence intensity was measured at 590 nm (excitation wavelength = 560 nm).
(§4) The Alamar Blue assay was carried out as described, with the following treatment reagents: 20 μM compounds, 10 μM compounds, 5 μM compounds, and 2 μM compounds.

[6] = system: Cu-Aβ42 cytotoxicity on N2a cells; assay: N2a cell rescue from Cu-induced Aβ42 cytotoxicity (Alamar blue); format: cell-based, mouse; details: [Aβ42] = [CuCl2] = 20 μM, compound 5 μM
Method: as §3
The Alamar Blue assay was carried out as described, with the following treatment reagents: 20 μM Aβ42 species, 5 μM compounds, and 20 μM CuCl2.

N2a cells = assay: Alamar blue cytotoxicity assay; format: cell-based, mouse; details: among the cyclic amine EDG derivatives
Method: as §3, §4

Aβ40 peptide = molecular target: T4, Aβ40 peptide (Homo sapiens, UniProt P05067); assay: Aβ40 aggregation inhibition assay monitored by ThT fluorescence; format: biochemical; details: 25 μM Aβ40, 5 μM ThT, 5 μM compound, 37 °C, 48 h
T4 construct: a peptide solution of 25 μM Aβ40 monomers (AnaSpec, Fremont, CA, USA) was prepared; purchased AnaSpec
T4 sequence (P05067 672-711 limits assumed): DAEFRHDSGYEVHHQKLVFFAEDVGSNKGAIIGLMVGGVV
Method: To investigate the effect of these compounds on amyloid aggregation, inhibition of aggregation assays were performed using the Aβ40 peptide. Aβ40 has been implicated in inducing oxidative stress and is physiologically the most common isoform of the amyloid peptide and is therefore a widely used isoform in amyloid assays. Aβ40 is also known to have slower aggregation kinetics than Aβ42, which is helpful for studying the inhibition of the early aggregation pathway. […] Thus, a lower RFU can be interpreted as inhibiting the fibrillization of amyloids. The rest of the compounds show appreciable inhibition of Aβ aggregation as found in the Supplementary Materials (Figure S2), except for L9, which contains the morpholine EDG and a methoxy group on the EAG (Figure 3). The addition of the more polar oxygen heteroatom may instead favor hydrogen bonding interactions within the aqueous media, thereby solvating the compound and reducing early interactions with soluble aggregates. Lastly, although L2 and L3 show similar amyloid inhibition, the L3 compound lacking the o-methoxy group begins inhibition at an earlier time. […] This procedure was established in a previous publication.

soluble Aβ42 = soluble Aβ42 (Homo sapiens, UniProt P05067); assay: ThT control fluorescence turn-on assay with soluble Aβ42; format: binding; details: [Aβ42] = 5 μM, em 485 nm, ex 435 nm
Sequence of soluble Aβ42 (P05067 672-713 limits assumed): as the sequence (P05067 672-713 limits assumed) above
Method: Aβ42 and Aβ42 fibrils was used to control for soluble vs. insoluble amyloid.
text to prepare soluble and fibrillar Aβ42, the UV-vis absorbance was measured for the soluble
Aβ42 used in the control. In a cuvette, 100 μL o f [ A β42] = 20 μM. […]

[7] = molecular target: T5, Aβ aggregates (sAβ and Aβ fibrils) (Homo sapiens, UniProt P05067); assay: Fluorescence turn-on assay with Aβ aggregates; format: binding; details: compound 5 μM in PBS pH 7.4
T5 construct: commercial Aβ42 peptide (AnaSpec or GL Biochem); purchased AnaSpec or GL Biochem
T5 sequence (P05067 672-713 limits assumed): as above
Method: A fluorescence turn-on assay was performed to interrogate the effect of structural differences on the fluorescence enhancement with Aβ aggregates. […] Increases in fluorescence intensity with different aggregates would be ideal for tools used in amyloid-based assays. […] Without the ortho-methoxy group on the EAG, there is greater fluorescence enhancement for Aβ fibrils over sAβ for L3 and L4. […] The larger fluorescence enhancement observed for L6 than L5 indicates the dimethylamine EDG/methoxy EAG pair has a greater TICT. The piperidine-EDG-containing L7 has only slightly higher turn-on with sAβ, which may be attributed to the ortho-methoxy group on the EAG. […] In this case, it appears that the methoxy on the EAG diminishes the overall fluorescence of the compound since L8 has greater baseline fluorescence and turn-on than L7. This is also the case for the morpholine-EDG-containing L9 and L10. The lack of a methoxy group on the L10 EAG, in conjunction with the oxygen heteroatom from the morpholine EDG, electronically favors turn-on with Aβ fibrils to a slight extent. […] Changing the EDG to a methyl piperazine, L11, increases baseline fluorescence and turn-on compared to L9. […] L11 and L12, both containing an N-methyl piperazine EDG, show similar turn-on with sAβ and fibrils, and the o-methoxy EAG of L11 increases overall baseline fluorescence compared to L12. […] The spectra for the remaining compounds can be found in the Supplementary Information (Figure S1). None of the three compounds with the highest fluorescence contained an o-methoxy group on the EAG.
as §1, with “above. […]” for “above.”

| Structure (SMILES) | logD [1] | Compound+sAβ λem (λmax of emission) [2] | Pearson's coefficient (R) of colocalization with AF594-HJ3.4 [3] | Compound+Fibrils λem (λmax of emission) (Aβ42 fibrils) | Compound λem (λmax of emission) [4] | viability at 40 h, 20 µM [5] | effect on Cu-stabilized Aβ42 / Aβ42-induced toxicity [6] | cell viability (ranking in words) (N2a cells) | inhibition of Aβ40 aggregation (ThT RFU) (Aβ40 peptide) | fluorescence turn-on (soluble Aβ42) | fluorescence enhancement / turn-on with Aβ aggregates [7] |
| --- | --- | --- | --- | --- | --- | --- | --- | --- | --- | --- | --- |
| CNc1ccc(/C=C/c2cc(CN3CCN(C)CCN(C)CC3)c(O)c(OC)c2)cc1 [Compound L2, (E)-2-((4,7-dimethyl-1,4,7-triazonan-1-yl)methyl)-6-methoxy-4-(4-(methylamino)styryl)phenol] | 1.48 ± 0.02 | 440 nm | 0.54 | 440 nm | 460 nm | 88% |  |  |  |  |  |
| CN1CCN(C)CCN(Cc2cc(/C=C/c3ccc(N4CCN(C)CC4)cc3)ccc2O)CC1 [Compound L12, (E)-2-((4,7-dimethyl-1,4,7-triazonan-1-yl)methyl)-4-(4-(4-methylpiperazin-1-yl)styryl)phenol] | 0.81 ± 0.01 | 430 nm | 0.65 | 435 nm | 450 nm |  | rescue cells from Cu-Aβ42 cytotoxicity | best cell viability |  |  |  |
| COc1cc(/C=C/c2ccc(N3CCOCC3)cc2)cc(CN2CCN(C)CCN(C)CC2)c1O [Compound L9, (E)-2-((4,7-dimethyl-1,4,7-triazonan-1-yl)methyl)-6-methoxy-4-(4-morpholinostyryl)phenol] | 0.93 ± 0.02 | 455 nm | 0.71 | 450 nm | 455 nm |  | inhibit both Cu-stabilized Aβ42- and Aβ42-induced toxicity; also recorded: rescue cells from Cu-Aβ42 cytotoxicity | best cell viability | least inhibition |  |  |
| Cc1ccc2c(c1)sc(-c1ccc(N(C)C)cc1)[n+]2C [ThT, Thioflavin T] |  |  |  |  |  |  |  |  |  | negligible turn-on |  |
| CN1CCN(C)CCN(Cc2cc(/C=C/c3ccc(N4CCCCC4)cc3)ccc2O)CC1 [Compound L8, (E)-2-((4,7-dimethyl-1,4,7-triazonan-1-yl)methyl)-4-(4-(piperidin-1-yl)styryl)phenol] | 1.29 ± 0.01 | 430 nm | 0.68 | 430 nm | 460 nm |  | toxicity was exacerbated |  | best inhibition |  | highest fluorescence turn-on; also recorded: greatest overall fluorescence enhancements |
